Assays:
Experiment in all cases: Assay for Inhibition of Compounds Provided in the Present Application on CYP Enzymes
Cytochrome P450 1A2 = target: T1, Cytochrome P450 1A2 (Homo sapiens, UniProt P05177)
T1 sequence (P05177 whole entry): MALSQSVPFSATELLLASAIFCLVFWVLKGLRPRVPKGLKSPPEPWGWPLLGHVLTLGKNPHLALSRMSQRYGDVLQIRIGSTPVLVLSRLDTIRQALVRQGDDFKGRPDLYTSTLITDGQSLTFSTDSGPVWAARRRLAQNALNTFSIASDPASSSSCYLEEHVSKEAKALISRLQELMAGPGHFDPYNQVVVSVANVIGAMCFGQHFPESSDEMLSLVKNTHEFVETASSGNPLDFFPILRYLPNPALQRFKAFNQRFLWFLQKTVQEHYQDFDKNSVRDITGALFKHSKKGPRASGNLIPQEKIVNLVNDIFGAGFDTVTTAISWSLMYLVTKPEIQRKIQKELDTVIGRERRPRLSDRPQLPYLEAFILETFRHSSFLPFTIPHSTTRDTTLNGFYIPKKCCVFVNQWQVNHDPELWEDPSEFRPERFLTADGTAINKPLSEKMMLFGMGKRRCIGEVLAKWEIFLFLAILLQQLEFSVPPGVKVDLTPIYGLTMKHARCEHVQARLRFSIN
Procedure: (§1) Typical substrate metabolic responses of five major human CYP subtypes (CYP1A2, CYP2C9, CYP2C19, CYP2D6, CYP3A4) were evaluated using 150-donor pooled human liver microsomes (purchased from Corning, Cat. No.: 452117). The influence of different concentrations of each compound to be tested on metabolic responses of phenacetin (CYP1A2), diclofenac sodium (CYP2C9), S-mephenytoin (CYP2C19), bufuralol hydrochloride (CYP2D6), and midazolam (CYP3A4) was determined by liquid chromatography-mass spectrometry (LC/MS/MS). The reaction system (200 μL) (100 mmol/L phosphate buffer, pH 7.4, containing DMSO, acetonitrile and methanol at a volume ratio of 0.3%:0.6%:0.1%) of 30 μM phenacetin, 10 μM diclofenac sodium, 35 μM S-mephenytoin, 5 μM bufuralol hydrochloride, 3 μM midazolam, 1 mM reduced nicotinamide adenine dinucleotide phosphate (NADPH), the compound to be tested (at concentrations of 0.1, 0.3, 1, 3, 10, 30 μmol/L, respectively), or positive compound or blank control, with pooled human liver microsomes (0.2 mg/mL) was incubated at 37° C. for 5 min. Then 200 μL of acetonitrile solution containing 3% formic acid and 40 nM internal standard verapamil was added and centrifuged at 4000 rpm for 50 min. The mixture was cooled on ice for 20 min and centrifuged at 4000 rpm for 20 min to precipitate the protein. Then 200 μL of supernatant was analyzed by LC-MS/MS.The peak area was calculated from the chromatogram.

Cytochrome P450 2C19 = Cytochrome P450 2C19 (Homo sapiens, UniProt P33261)
Cytochrome P450 2C19, sequence (P33261 whole entry): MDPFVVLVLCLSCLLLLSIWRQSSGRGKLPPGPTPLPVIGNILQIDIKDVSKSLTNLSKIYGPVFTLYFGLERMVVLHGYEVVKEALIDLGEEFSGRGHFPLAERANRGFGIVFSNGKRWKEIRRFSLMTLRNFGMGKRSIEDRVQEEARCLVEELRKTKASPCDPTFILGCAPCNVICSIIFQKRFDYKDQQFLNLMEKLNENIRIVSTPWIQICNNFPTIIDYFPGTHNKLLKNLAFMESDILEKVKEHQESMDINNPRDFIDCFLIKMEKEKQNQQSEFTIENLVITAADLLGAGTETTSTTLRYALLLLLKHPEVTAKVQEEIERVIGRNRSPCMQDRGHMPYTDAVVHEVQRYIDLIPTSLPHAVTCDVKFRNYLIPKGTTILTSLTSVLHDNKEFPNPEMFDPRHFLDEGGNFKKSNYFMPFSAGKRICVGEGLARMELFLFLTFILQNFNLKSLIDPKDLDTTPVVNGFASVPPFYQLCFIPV
Procedure: as §1

Cytochrome P450 2C9 = Cytochrome P450 2C9 (Homo sapiens, UniProt P11712)
Cytochrome P450 2C9, sequence (P11712 whole entry): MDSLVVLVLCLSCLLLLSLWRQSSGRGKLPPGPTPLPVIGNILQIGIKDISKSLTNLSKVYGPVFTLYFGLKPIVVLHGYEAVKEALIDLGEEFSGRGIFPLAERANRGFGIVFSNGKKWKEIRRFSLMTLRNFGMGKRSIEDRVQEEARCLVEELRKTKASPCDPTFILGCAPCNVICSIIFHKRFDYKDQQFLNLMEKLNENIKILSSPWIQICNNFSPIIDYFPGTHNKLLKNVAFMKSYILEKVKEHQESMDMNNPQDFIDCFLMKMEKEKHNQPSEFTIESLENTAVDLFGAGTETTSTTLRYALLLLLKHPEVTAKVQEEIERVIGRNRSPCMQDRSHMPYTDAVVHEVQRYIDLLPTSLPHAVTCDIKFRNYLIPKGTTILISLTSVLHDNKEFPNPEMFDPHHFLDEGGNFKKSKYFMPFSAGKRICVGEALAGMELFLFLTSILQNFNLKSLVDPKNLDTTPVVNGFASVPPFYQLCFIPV
Procedure: as §1

**Q.** For COc1nccc(C2CC2)c1-c1ncc2c(n1)N(Cc1ccc(-c3nc(C(F)(F)F)cn3C)cc1)CC(=O)N2C [US20240226107, Compound 11], which IC50 (Cytochrome P450 1A2) is on record?
**A.** > 30 µM

**Q.** And the IC50 (Cytochrome P450 2C19)?
**A.** 17.1 µM

**Q.** What about the IC50 (Cytochrome P450 2C9) of the same compound?
**A.** 28.9 µM

Reference: BindingDB's records for patent US20240226107 (Simcere Zaiming Pharmaceutical Co., 2024)
